Like-named read-outs stand apart in the source and are kept apart here.
What was measured:
A549/OPNluc cells = assay: WST assay for cell growth / cell viability; assay type: cell-based, human; settings: Homo sapiens, A549, A549/OPNluc cells, 48±4 hours, WST-1; read-out: IC50 (concentration for 50% inhibition of cell growth)
Description: (§1) A reporter vector pOPN1-luc obtained by the insertion of a human OPN promoter sequence (−765 to 23) into the multiple cloning site of pGL-3 basic vector (Promega) expresses luciferase when transfected into animal cells. The pOPN1-luc was transfected into a human non-small cell lung cancer-derived cell line A549 together with pPUR (Clontech) that expresses a puromycin resistance gene (puromycin-N-acetyl-transferase gene), and then cells expressing luciferase which could grow a puromycin-supplemented medium were selected. The selected cells were named “A549/OPNluc cells” and used for observation of luciferase expression inhibitory effect under control of OPN promoter, as described below.
(§2) A test compound was added to a culture containing A549/OPNluc cells to observe its influence on the amount of luciferase expressed in the cells. Here, it can be considered that when the test compound has a cell cytotoxity or cell growth inhibitory effect, the total expression level of luciferase is reduced due to a reduction in the number of living cells that depends on the concentration of the test compound, and therefore the luciferase expression inhibitory effect of the test compound under control of OPN promoter cannot be properly evaluated. For this reason, WST assay for quantification of cell proliferation ability or cell viability by colorimetric measurement was firstly performed to determine IC50 (concentration for 50% inhibition of cell growth) of the test compound for cell growth. Then, luciferase activity measurement was performed to determine EC50 (concentration for 50% inhibition of luciferase expression) of the test compound for luciferase expression under control of OPN promoter.
A549/OPNluc cells were suspended in DMEM medium containing 10% fetal calf serum (FCS) and 1% penicillin/streptomycin (P/S) at 3×10^4 cells/mL to obtain a cell suspension, and then the cell suspension was dispensed into each well of a 96-well plate in an amount of 100 μL. In order to perform the assay in triplicate, wells were prepared for a control group, and 3 wells were prepared for each test compound-treated group at each concentration. After the dispensation, the 96-well plate was incubated in a CO2 incubator (at 37° C. and 5% CO2) for 24±4 hours.
The present compound was dissolved in dimethylsulfoxide (DMSO) to obtain a 50 mmol/L solution, and the compound solution was stored at −80° C. The compound solution was diluted with DMSO in 2-fold dilution series (usually, in the range of 0.31 mmol/L to 20 mmol/L) to prepare test compound solutions whose concentration varied by two fold for WST assay.
Each solution of only DMSO (control) and the diluted test compound (sample) was dispensed into each well containing the cell suspension in an amount of 0.5 μL (200-fold dilution). The solution in each well was mixed with a vortex mixer, and then the 96-well plate was incubated in a CO2 incubator (at 37° C. and 5% CO2) for 48±4 hours. Then, Premix WST-1 Reagent (TAKARA BIO INC.) was added in an amount of 10 μL to each well. The solution in each well was mixed with a vortex mixer, and then the 96-well plate was incubated at 37° C. and 5% CO2. After 60 minutes or 120 minutes, the absorbance values (450 nm) were measured with a microplate reader (Bio-Rad; Benchmark or Thermo Scientific; Varioskan Flash).
The absorbance values of the control wells and the sample wells at each concentration were input into an Excel file to determine the percentages of absorbance values of the sample wells at each concentration with to the average absorbance value of the control wells. From the determined values, a fitted curve was determined by the method of least squares to calculate IC50.

[1] = system: human OPN promoter (pOPN1-luc) in A549/OPNluc cells; assay: Luciferase assay: luciferase expression under control of OPN promoter; assay type: cell-based; settings: Homo sapiens
Description: as §1, §2
The same steps as in the above-mentioned WST assay were performed in which each solution of only DMSO (control) or the diluted test compound (sample) was added in an amount of 0.5 μL to each well containing the cell suspension to achieve 200-fold dilution, and the solution in each well was mixed with a vortex mixer, and the 96-well plate was incubated in a CO2 incubator (at 37° C. and 5% CO2) for 48±4 hours.
Luciferase Assay Substrate (hereinafter referred to as “LAS”) supplied in Luciferase Assay Systems (Promega: Cat #E1500) was dissolved in Luciferase Assay Buffer (LAB) to prepare a luciferase reagent. 5×Cell Culture Lysis Reagent (hereinafter referred to as “CCLR”) was diluted by 5 times with water to prepare 1×CCLR.
After the incubation for 48±4 hours, the medium in each well was completely removed, and 1×CCLR was dispensed into each well in an amount of 50 μL. The 96-well plate was allowed to stand at room temperature for 30 minutes, and then 1×CCLR in each well was used as an assay sample. The luciferase reagent (100 μL) was placed in a tube for chemiluminescence measurement, and the assay sample (20 μL) was added to the tube and mixed with the luciferase reagent to measure chemiluminescence (Relative Luminescence Intensity: RLU) using TB 20/20 (Promega) or GloMax 20/20 (Promega).
The RLU values of the control wells and the sample wells at each concentration were input into an Excel file, and the percentages of RLU values of the sample wells at each concentration to the average RLU value of the control wells were determined. From these values, a fitted curve was determined by the method of least squares to calculate EC50. Also, the percentages of RLU values of the sample wells at each concentration to the average RLU value of the control wells were divided by the percentages of absorbance values of the compounds in WST assay at the same concentrations as those of this assay (to the control), and a fitted curve was determined from the calculated values by the method of least squares to calculate corrected EC50.

[2] = A549, A549/OPNluc cells, 48±4 hours, read-out: EC50 (concentration for 50% inhibition of luciferase expression)
[3] = A549, EC50 corrected for decrease in viable cells (RLU % divided by WST %), read-out: corrected EC50

Row | Structure (SMILES) | IC50 (A549/OPNluc cells) | EC50 [1, 2] | EC50 [1, 3]
1 | COc1ccc(Oc2cccc(C(=O)CCNC(=O)c3ccc(O)cc3)c2N)cc1 [Compound 6, N-(3-(2-Amino-3-(4-methoxyphenoxy)phenyl)-3-oxopropyl)-4-hydroxybenzamide] | 66 µM | 8.9 µM | 10.2 µM
2 | Nc1ccc(C(=O)NCCC(=O)c2cccc(Oc3ccc(Cl)cc3)c2N)cc1 [Compound 19, N-(3-(2-Amino-3-(4-chlorophenoxy)phenyl)-3-oxopropyl)-4-aminobenzamide] | > 100 µM | 6.8 µM | 7.8 µM
3 | COc1ccc(Oc2cccc(NC(=O)CCNC(=O)c3ccc(O)cc3)c2)cc1 [Compound 26, N-(3-(3-(4-Methoxyphenoxy)phenylamino)-3-oxopropyl)-4-hydroxybenzamide] | 86.2 µM | 20.3 µM | 27.1 µM
4 | O=C(CCNC(=O)c1ccc(O)cc1)Nc1cccc(Oc2ccc(Cl)c(Cl)c2)c1 [Compound 38, N-(3-(3-(3,4-dichlorophenoxy)phenylamino)-3-oxopropyl)-4-hydroxybenzamide] | 17.3 µM | 4.6 µM | 7.5 µM

Reference: US11040937B2, “Amide derivative” (TOHOKU UNIVERSITY, priority 2014, dated 2021)
